According to US10919943B2, “Mutant proteins enabling agrochemical control of plant gene expression” (The Regents of the University of California, priority 2016, dated 2021):

How the values were obtained:
[1] = system: 35S::GFP-cyt-HAB1* and 35S::nuc-PYR1*^-MANDI; experiment: Mandipropamid control of protein nuclear localization, transient co-expression, confocal microscopy; type: in vivo, N. benthamiana; conditions: 50 μM mandipropamid, 24 hours; FIG. 13
Description: To test this idea, we created a nuclear localized version of PYR1*^-MANDI (SEQ ID NO:32) and a cytoplasmically localized GFP-HAB1*(SEQ ID NO:33), co-expressed the two components in N. benthamiana, and subsequently examined the localization of GFP-HAB1* in response to mandipropamid using confocal microscopy. To accomplish this, we cloned PYR1*^-MANDI into the yeast two hybrid vector pAD, generating a GAL4 activation domain fusion to PYR1*^-MANDI. The GAL4 activation domain present in pAD contains a synthetic SV40 nuclear localization signal (NLS) at its N-terminus. […]
To characterize these components, 35S::GFP-cyt-HAB1* and 35S::nuc-PYR1*^-MANDI were transiently co-expressed in N. benthamiana, as described above, and plants treated with a mock or mandipropamid solution (FIG. 13). […] The leaf tissue was scanned manually by epi-fluorescence to identify patches of GFP^+ cells and then observed by spinning disk confocal microscopy, collecting ˜10 micron deep sections that spanned the entire epidermal cell layer. […] Fluorescence imaging was done using a custom built spinning disk system (Solamere Technology, Inc) with a Yokagawa W1 spinning disk (Yokagawa), EM-CCD camera (Hamamatsu 9100c) and a Nikon Eclipse TE (Nikon) inverted stand. […]

[2] = system: 35S::PYR1^MANDI transgenic strain; experiment: Thermography of leaf temperature after chemical treatment; type: in vivo, Arabidopsis thaliana; conditions: 1 μM then 10 μM mandipropamid, 24 hours after treatment; FIG. 10
Description: To examine the effects of over-expressing either PYR1*^-MANDI or HAB1* in Arabidopsis thaliana, we made 35S-driven GFP-PYR1*^-MANDI and GFP-HAB1* constructs by cloning the mutant genes into the binary vector pEGAD, and the resultant plasmids were transformed into Agrobacterium tumefaciens. The floral dip method was used to generate T0 transgenic seed for both constructs and the T0 seed was germinated in soil containing glufosinate to select for transgenic T1 plants. The PYR1*^-MANDI T1 plants isolated were grown for ˜5 weeks and then treated with mandipropamid, using comparisons to wild type Columbia plants and a previously constructed 35S::PYR1^MANDI transgenic strain as controls. The treated plants were thermographed 24 hours after chemical applications to examine leaf temperature, which increases after ABA responses are activated, due to reduced transpiration. To examine different mandipropamid concentrations, the plants were first treated with 1 μM mandipropamid and then 3 days later were treated again with 10 μM mandipropamid.

In the case of C#CCOc1ccc(CCNC(=O)C(OCC#C)c2ccc(Cl)cc2)cc1OC (centres unmarked) [mandipropamid], the “localization of GFP-cyt-HAB1*” value [1] is reported as “predominantly nuclear localization pattern” and the leaf temperature [2] is reported as “strong increase in leaf temperature”.
